Structures are written as SMILES.

In general, AUC(0-t) refers to the area under the concentration-time curve up to a stated or last time point. A higher AUC(0-t) goes with high exposure. The DC50 is the concentration at which degradation of the target reaches its halfway point. Higher therefore signals a less potent degrader. As a reminder, the GI50 is the concentration giving 50% growth inhibition. In general, IC50 refers to the point on the concentration scale where inhibition reaches its midpoint. Low values mean greater potency in that assay, high ones weaker potency in that assay.

Series [1] is described as follows: Pharmacokinetics following single intravenous and oral gavage dosing (AUC0-24h). In kind it is in vivo. Conditions: mouse, plasma; single oral dose 30 mg/Kg, male CD-1 mice. As for the experimental part: Compounds disclosed herein were studied for animal tolerability and pharmacokinetics following single intravenous (iv) and oral gavage (po) dosing to male CD-1 mice. For each compound in each dosing route, 3 mice were used with iv dosing volume of 5 mL/kg and po dosing volume of 10 mL/kg. The compounds were formulated in 10% DMSO, 30% PEG400, 60% aqueous solution containing 20% 2-hydroxypropyl-β-cyclodextrin. Blood sampling time points for iv dosing were 0.083, 0.25, 0.5, 1, 2, 4, 8 and 24 h. The sampling time points for po dosing were 0.25, 0.5, 1, 2, 4, 6, 8 and 24 h. Mice activities were monitored and recorded immediately following the dosing. The prepared plasma samples were analyzed using LC/MS/MS on AB Sciex Triple Quad 5500+ system. The PK parameters were determined by non-compartmental analysis using WinNonlin (Version 8.0).

A further series addresses KRAS G12V (Homo sapiens (Human), UniProt P01116, G12V). In words: KRAS G12V degradation in SW620 cells (Western blot, DC50). In kind it is cell-based. To be noted: 24 hours. An outline of the steps:
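SW620 cells (homozygous KRAS G12V) were treated with compound for 24 hours at 37° C. KRAS in lysates was measured by Western blot with fluorescent secondary antibodies and expressed relative to DMSO vehicle (100%). DC50 came from a four-parameter variable-slope dose-response fit.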
(In general: In western blotting, separated proteins are transferred to a membrane and probed.)

In another series the test system is SW620 cells. In words: 3D cell growth inhibition of SW620 cells carrying endogenous KRAS G12V mutation (CellTiter-Glo 3D, GI50). Conditions: Homo sapiens, SW-620, 144 h; SW620 cells, 6 days; read-out: SW620 3D cell growth GI50. In kind it is cell-based. An outline of the steps:
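SW620 cells (endogenous KRAS G12V) grown in 3D were dosed next day with compound from DMSO stocks at various concentrations, then incubated 6 days at 37° C.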

The next series deals with KRAS-G12V/RAF1 (Homo sapiens (Human), UniProt P01116, G12V). In words: KRAS/RAF1 binding inhibition assay (AlphaScreen). In short, it runs like this:
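Binding of GppNHp-loaded KRAS G12V to the RAF1 RBD was measured by AlphaScreen with test compound present in 2% DMSO (final), 60 min incubation at 4° C. Signals were converted to % inhibition versus DMSO, and IC50 was obtained by variable-slope nonlinear regression.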
(Alpha assays give light when donor and acceptor beads are brought close together.)

Sequence of KRAS G12V (P01116-2 other isoform, or with tags, fused parts or gaps G12V): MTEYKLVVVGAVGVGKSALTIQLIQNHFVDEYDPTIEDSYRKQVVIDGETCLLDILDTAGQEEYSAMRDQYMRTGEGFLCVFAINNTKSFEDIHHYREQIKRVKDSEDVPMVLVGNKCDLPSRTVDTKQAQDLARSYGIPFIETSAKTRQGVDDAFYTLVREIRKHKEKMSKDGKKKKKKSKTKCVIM
Sequence of KRAS-G12V/RAF1 (P01116-2 other isoform, or with tags, fused parts or gaps G12V): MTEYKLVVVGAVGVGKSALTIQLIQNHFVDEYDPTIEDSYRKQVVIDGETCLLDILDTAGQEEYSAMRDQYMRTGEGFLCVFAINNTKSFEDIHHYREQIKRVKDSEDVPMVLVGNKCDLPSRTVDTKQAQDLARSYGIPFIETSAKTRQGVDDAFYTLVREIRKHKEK

With `CCc1c(F)ccc2cc(O)cc(-c3ncc4c(N5CCC[C@@](C)(O)C5)nc(OCC5(CN6CCC(CN7CCN(c8ccc9c(c8)CN([C@H]8CCC(=O)NC8=O)C9=O)CC7)CC6)CC5)nc4c3F)c12` [Compound 1, (S)-3-(5-(4-((1-((1-(((7-(8-ethyl-7-fluoro-3-hydroxynaphthalen-1-yl)-8-fluoro-4-((R)-3-hydroxy-3-methylpiperidin-1-yl)pyrido[4,3-d]pyrimidin-2-yl)oxy)methyl)cyclopropyl)methyl)piperidin-4-yl)methyl)piperazin-1-yl)-1-oxoisoindolin-2-yl)piperidine-2,6-dione], the area under the curve AUC(0-t) in series [1] is 220 ng·h/mL.
For the compound `CCc1c(F)ccc2cc(O)cc(-c3ncc4c(N5CCC[C@@](C)(O)C5)nc(OCC5(CN6CCC(F)(CN7CCN(c8ccc9c(c8)CN([C@H]8CCC(=O)NC8=O)C9=O)CC7)CC6)CC5)nc4c3F)c12` [Compound 8, (S)-3-(5-(4-((1-((1-(((7-(8-ethyl-7-fluoro-3-hydroxynaphthalen-1-yl)-8-fluoro-4-((R)-3-hydroxy-3-methylpiperidin-1-yl)pyrido[4,3-d]pyrimidin-2-yl)oxy)methyl)cyclopropyl)methyl)-4-fluoropiperidin-4-yl)methyl)piperazin-1-yl)-1-oxoisoindolin-2-yl)piperidine-2,6-dione], on KRAS G12V, the half-maximal degradation concentration (DC50) is under 1 nM. In series [1], this compound yielded an area under the curve AUC(0-t) of 3420 ng·h/mL. The concentration for 50% growth inhibition (GI50) in the series on SW620 cells was under 10 nM. On KRAS-G12V/RAF1, this compound yielded a 50% inhibitory concentration (IC50) of 20 to 200 nM.
The corresponding values for `CCc1c(F)ccc2cc(O)cc(-c3ncc4c(N5CCC[C@@](C)(O)C5)nc(OCC5(CN6CCC(C)(CN7CCN(c8ccc9c(c8)CN([C@H]8CCC(=O)NC8=O)C9=O)CC7)CC6)CC5)nc4c3F)c12` [Compound 12, (S)-3-(5-(4-((1-((1-(((7-(8-ethyl-7-fluoro-3-hydroxynaphthalen-1-yl)-8-fluoro-4-((R)-3-hydroxy-3-methylpiperidin-1-yl)pyrido[4,3-d]pyrimidin-2-yl)oxy)methyl)cyclopropyl)methyl)-4-methylpiperidin-4-yl)methyl)piperazin-1-yl)-1-oxoisoindolin-2-yl)piperidine-2,6-dione] are under 1 nM, 3250 ng·h/mL, under 10 nM and 20 to 200 nM.
Turning to `CCc1c(F)ccc2cc(O)cc(-c3ncc4c(N5CCCC6(CCO6)C5)nc(OCC5(CN6CCC(CN7CCN(c8ccc9c(c8)CN([C@H]8CCC(=O)NC8=O)C9=O)CC7)CC6)CC5)nc4c3F)c12` (stereo partly drawn) [Compound 23, (3S)-3-(5-(4-((1-((1-(((7-(8-ethyl-7-fluoro-3-hydroxynaphthalen-1-yl)-8-fluoro-4-(1-oxa-6-azaspiro[3.5]nonan-6-yl)pyrido[4,3-d]pyrimidin-2-yl)oxy)methyl)cyclopropyl)methyl)piperidin-4-yl)methyl)piperazin-1-yl)-1-oxoisoindolin-2-yl)piperidine-2,6-dione], the area under the curve AUC(0-t) in series [1] stood at 783 ng·h/mL. For the same compound, in the series on SW620 cells, the GI50 is under 10 nM. For the same compound, the IC50 on KRAS-G12V/RAF1 was in the range of 20 to 200 nM.
Regarding `CCc1c(F)ccc2cc(O)cc(-c3ncc4c(N5CCCC6(CCO6)C5)nc(OCC5(CN6CCC(CN7CCC(N8CCN(c9ccc%10c(c9)CN([C@H]9CCC(=O)NC9=O)C%10=O)CC8)CC7)CC6)CC5)nc4c3F)c12` (stereo partly drawn) [Compound 38, (3S)-3-(5-(4-(1-((1-((1-(((7-(8-ethyl-7-fluoro-3-hydroxynaphthalen-1-yl)-8-fluoro-4-(1-oxa-6-azaspiro[3.5]nonan-6-yl)pyrido[4,3-d]pyrimidin-2-yl)oxy)methyl)cyclopropyl)methyl)piperidin-4-yl)methyl)piperidin-4-yl)piperazin-1-yl)-1-oxoisoindolin-2-yl)piperidine-2,6-dione], the 50% degradation concentration (DC50) at KRAS G12V lay in the range of 1 to 10 nM. In series [1], this compound came in with an area under the curve AUC(0-t) of 170 ng·h/mL. Further, in the series with SW620 cells, the GI50 is under 10 nM.
On KRAS G12V, `CCc1c(F)ccc2cc(O)cc(-c3ncc4c(N5CCC[C@@](C)(O)C5)nc(OCC5(CN6CCC7(CC6)CC(F)(CN6CCN(c8cc(F)c(C9CCC(=O)NC9=O)c(F)c8)CC6)C7)CC5)nc4c3F)c12` (stereo partly drawn) [Compound 46, 3-(4-(4-((7-((1-(((7-(8-ethyl-7-fluoro-3-hydroxynaphthalen-1-yl)-8-fluoro-4-((R)-3-hydroxy-3-methylpiperidin-1-yl)pyrido[4,3-d]pyrimidin-2-yl)oxy)methyl)cyclopropyl)methyl)-2-fluoro-7-azaspiro[3.5]nonan-2-yl)methyl)piperazin-1-yl)-2,6-difluorophenyl)piperidine-2,6-dione] returned a half-maximal degradation concentration (DC50) of 1 to 10 nM. The same compound had an AUC(0-t) in series [1] of 9130 ng·h/mL. Moreover, the 50% growth inhibitory concentration (GI50) in the series with SW620 cells was under 10 nM.
With `CCc1c(F)ccc2cc(O)cc(-c3ncc4c(N5CCC[C@@](C)(O)C5)nc(OCC5(CN6CCC(F)(CN7CCN(c8cccc9c8n(C)c(=O)n9C8CCC(=O)NC8=O)CC7)CC6)CC5)nc4c3F)c12` (stereo partly drawn) [Compound 65, 3-(4-(4-((1-((1-(((7-(8-ethyl-7-fluoro-3-hydroxynaphthalen-1-yl)-8-fluoro-4-((R)-3-hydroxy-3-methylpiperidin-1-yl)pyrido[4,3-d]pyrimidin-2-yl)oxy)methyl)cyclopropyl)methyl)-4-fluoropiperidin-4-yl)methyl)piperazin-1-yl)-3-methyl-2-oxo-2,3-dihydro-1H-benzo[d]imidazol-1-yl)piperidine-2,6-dione], the AUC(0-t) in series [1] amounted to 10700 ng·h/mL.
In series [1], `CCc1c(F)ccc2cc(O)cc(-c3ncc4c(N5CCC[C@@](C)(O)C5)nc(OCC5(CN6CCC(F)(CN7CCN(c8ccc9c(C%10CCC(=O)NC%10=O)nn(C)c9c8)CC7)CC6)CC5)nc4c3F)c12` (stereo partly drawn) [Compound 66, 3-(6-(4-((1-((1-(((7-(8-ethyl-7-fluoro-3-hydroxynaphthalen-1-yl)-8-fluoro-4-((R)-3-hydroxy-3-methylpiperidin-1-yl)pyrido[4,3-d]pyrimidin-2-yl)oxy)methyl)cyclopropyl)methyl)-4-fluoropiperidin-4-yl)methyl)piperazin-1-yl)-1-methyl-1H-indazol-3-yl)piperidine-2,6-dione] showed an AUC(0-t) of 7420 ng·h/mL.
Still for that read-out and setting: with `CCc1c(F)ccc2cc(O)cc(-c3ncc4c(N5CCC[C@@](C)(O)C5)nc(OCC5(CN6CCC(F)(CN7CCN(c8ccc(C9CCC(=O)NC9=O)c(F)c8)CC7)CC6)CC5)nc4c3F)c12` (stereo partly drawn) [Compound 84, 3-(4-(4-((1-((1-(((7-(8-ethyl-7-fluoro-3-hydroxynaphthalen-1-yl)-8-fluoro-4-((R)-3-hydroxy-3-methylpiperidin-1-yl)pyrido[4,3-d]pyrimidin-2-yl)oxy)methyl)cyclopropyl)methyl)-4-fluoropiperidin-4-yl)methyl)piperazin-1-yl)-2-fluorophenyl)piperidine-2,6-dione] the figure was 11900 ng·h/mL.
In the case of `CCc1c(F)ccc2cc(O)cc(-c3ncc4c(N5CCC[C@@](C)(O)C5)nc(OCC5(CN6CC7(CCC(F)(CN8CCN(c9ccc(C(=O)N[C@H]%10CCC(=O)NC%10=O)c(F)c9)CC8)CC7)C6)CC5)nc4c3F)c12` [Compound 183, N-((S)-2,6-dioxopiperidin-3-yl)-4-(4-((2-((1-(((7-(8-ethyl-7-fluoro-3-hydroxynaphthalen-1-yl)-8-fluoro-4-((R)-3-hydroxy-3-methylpiperidin-1-yl)pyrido[4,3-d]pyrimidin-2-yl)oxy)methyl)cyclopropyl)methyl)-7-fluoro-2-azaspiro[3.5]nonan-7-yl)methyl)piperazin-1-yl)-2-fluorobenzamide], the DC50 at KRAS G12V is over 100 nM. Besides, the GI50 in the series with SW620 cells is 10 to 100 nM. At KRAS-G12V/RAF1, this compound returned an IC50 of over 200 nM.
The corresponding values for `CCc1c(F)ccc2cc(O)cc(-c3ncc4c(N5CCC[C@@](C)(O)C5)nc(OCC5(CN6CCC7(CC6)CC(C6CCN(c8ccc9c(c8)CN(C8CCC(=O)NC8=O)C9=O)CC6)C7)CC5)nc4c3F)c12` (stereo partly drawn) [Compound 186, 3-(5-(4-(7-((1-(((7-(8-ethyl-7-fluoro-3-hydroxynaphthalen-1-yl)-8-fluoro-4-((R)-3-hydroxy-3-methylpiperidin-1-yl)pyrido[4,3-d]pyrimidin-2-yl)oxy)methyl)cyclopropyl)methyl)-7-azaspiro[3.5]nonan-2-yl)piperidin-1-yl)-1-oxoisoindolin-2-yl)piperidine-2,6-dione] are under 1 nM, under 10 nM and over 200 nM.
In the case of `CCc1c(F)ccc2cc(O)cc(-c3ncc4c(N5CCC[C@]6(CCO6)C5)nc(OCC5(CN6CCC7(CC6)CC(N6CCN(c8ccc9c(c8)CN([C@H]8CCC(=O)NC8=O)C9=O)CC6)C7)CC5)nc4c3F)c12` [Compound 218, (S)-3-(5-(4-(7-((1-(((7-(8-ethyl-7-fluoro-3-hydroxynaphthalen-1-yl)-8-fluoro-4-((S)-1-oxa-6-azaspiro[3.5]nonan-6-yl)pyrido[4,3-d]pyrimidin-2-yl)oxy)methyl)cyclopropyl)methyl)-7-azaspiro[3.5]nonan-2-yl)piperazin-1-yl)-1-oxoisoindolin-2-yl)piperidine-2,6-dione], the half-maximal degradation concentration (DC50) on KRAS G12V was under 1 nM. In the series with SW620 cells, the 50% growth inhibitory concentration (GI50) was under 10 nM. In addition, the IC50 at KRAS-G12V/RAF1 fell in the range of 20 to 200 nM.
